This is an account of results in US20150150878A1, “Methods For Inhibiting Viruses By Targeting Cathepsin-L Cleavage Sites In The Viruses' Glycoproteins” (priority 2012, published 2015).

Holding throughout (assay type): biochemical
Common to all, as to design: human cathepsin L purified from human liver (Sigma Aldrich); purchased Sigma Aldrich; host or cells: human liver (tissue-purified)

Assay [1] concerns the target T1, cathepsin L (Homo sapiens, UniProt P07711).
In assay [2] the target is T1, cathepsin L. The source holds these as a separate data set.
In assay [3] the target is T1, cathepsin L. This is another data set of the same source.
The target in assay [4] is T1, cathepsin L. This is another data set of the same source.
The target of assay [5] is T1, cathepsin L. This is another data set of the same source.
Note: test concentration or dose not given here.

T1 sequence (P07711 114-333): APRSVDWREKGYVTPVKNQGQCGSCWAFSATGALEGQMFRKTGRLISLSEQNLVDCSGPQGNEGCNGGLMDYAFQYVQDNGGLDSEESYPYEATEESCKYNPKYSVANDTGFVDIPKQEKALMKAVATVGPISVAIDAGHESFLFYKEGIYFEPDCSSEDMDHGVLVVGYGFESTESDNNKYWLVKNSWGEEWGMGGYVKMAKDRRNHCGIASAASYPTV

On to `N#CSc1ccc(NC(=O)CSc2nc3ccccc3[nH]2)cc1` [Compound 6572698], for which, at cathepsin L [1], the “Inhibition of cleavage of Nipah peptide by Cathepsin-L” value came out at 40.7% and the “percentage inhibition against Nipah peptide” value stood at 41.1%. For the same compound, on cathepsin L [2], the “Inhibition of cleavage of SARS peptide by Cathepsin-L” value came out at 66.1% and the “percentage inhibition against SARS peptide” value came out at 44.8%. Moreover, on cathepsin L [3], the “Inhibition of cleavage of Ebola peptide by Cathepsin-L” value is 15% and the “percentage inhibition against Ebola peptide” value turned out to be 34%. At cathepsin L [4], the “Inhibition of cleavage of Hendra peptide by Cathepsin-L” value turned out to be 21.6% and the “percentage inhibition against Hendra peptide” value amounted to 24.8%. Moreover, at cathepsin L [5], the “Inhibition of cleavage of NPY peptide by Cathepsin-L” value is on record as 1% and the “percentage inhibition against human Pro-NPY peptide” value is reported as 14.7%.

In the case of `Cc1cnn(CCCNC(=O)c2cc(-c3cccnc3)nc3ccc(Cl)cc23)c1` [Compound 7923236], on cathepsin L [1], the “Inhibition of cleavage of Nipah peptide by Cathepsin-L” value was 55.1% and the “percentage inhibition against Nipah peptide” value turned out to be 80.3%. In addition, at cathepsin L [2], the “Inhibition of cleavage of SARS peptide by Cathepsin-L” value is on record as 60.2% and the “percentage inhibition against SARS peptide” value stood at 66.2%. Besides, on cathepsin L [3], the “Inhibition of cleavage of Ebola peptide by Cathepsin-L” value was found to be 14% and the “percentage inhibition against Ebola peptide” value turned out to be 34.8%. Further, on cathepsin L [4], the “Inhibition of cleavage of Hendra peptide by Cathepsin-L” value is on record as 32.6% and the “percentage inhibition against Hendra peptide” value came out at 59%. In addition, on cathepsin L [5], the “Inhibition of cleavage of NPY peptide by Cathepsin-L” value was 5.2% and the “percentage inhibition against human Pro-NPY peptide” value was 10.1%.

As for `O=C(Nc1cccnc1)c1cc2cc(Br)ccc2oc1=O` [Compound 7947992], the “Inhibition of cleavage of Nipah peptide by Cathepsin-L” value at cathepsin L [1] was 61.4%. Further, the “Inhibition of cleavage of SARS peptide by Cathepsin-L” value on cathepsin L [2] was found to be 37.7%. On cathepsin L [3], the “Inhibition of cleavage of Ebola peptide by Cathepsin-L” value was determined as 20%. The “Inhibition of cleavage of Hendra peptide by Cathepsin-L” value on cathepsin L [4] was 31.1%. For the same compound, the “Inhibition of cleavage of NPY peptide by Cathepsin-L” value on cathepsin L [5] is listed as 18.6%.

`CNS(=O)(=O)c1ccc(NC(=O)Nc2ccc(F)c(Cl)c2)cc1` [Compound 7790059]: the “Inhibition of cleavage of Nipah peptide by Cathepsin-L” value at cathepsin L [1] is 44.1%. Moreover, the “Inhibition of cleavage of SARS peptide by Cathepsin-L” value on cathepsin L [2] came to 49.3%. The “Inhibition of cleavage of Ebola peptide by Cathepsin-L” value at cathepsin L [3] was 1.8%. Further, the “Inhibition of cleavage of Hendra peptide by Cathepsin-L” value at cathepsin L [4] is given as 12.4%. In addition, the “Inhibition of cleavage of NPY peptide by Cathepsin-L” value on cathepsin L [5] came to 6.4%.

As for `Cc1c(Sc2nc3ccccc3[nH]2)c(=O)[nH]c2cc3c(cc12)OCO3` [Compound 7665576], the “Inhibition of cleavage of Nipah peptide by Cathepsin-L” value on cathepsin L [1] is on record as 63.7%. Besides, the “Inhibition of cleavage of SARS peptide by Cathepsin-L” value at cathepsin L [2] was 60.7%. For the same compound, at cathepsin L [3], the “Inhibition of cleavage of Ebola peptide by Cathepsin-L” value is −3.8%. Besides, the “Inhibition of cleavage of Hendra peptide by Cathepsin-L” value on cathepsin L [4] is 37.9%. Besides, the “Inhibition of cleavage of NPY peptide by Cathepsin-L” value at cathepsin L [5] was determined as 2.0%.

For `Cc1ccc(-c2nc3ccccc3[nH]2)cc1NC(=O)c1ccc2c(c1)OCO2` [Compound 7793889], the “Inhibition of cleavage of Nipah peptide by Cathepsin-L” value on cathepsin L [1] is listed as 51.1%. Besides, the “Inhibition of cleavage of SARS peptide by Cathepsin-L” value on cathepsin L [2] is given as 76.5%. Besides, the “Inhibition of cleavage of Ebola peptide by Cathepsin-L” value at cathepsin L [3] is recorded as −3.4%. Besides, on cathepsin L [4], the “Inhibition of cleavage of Hendra peptide by Cathepsin-L” value was −7.77%. The “Inhibition of cleavage of NPY peptide by Cathepsin-L” value at cathepsin L [5] is 6.1%.

As for `O=C(Nc1nc(-c2ccccc2)cs1)c1cc(-n2cnnc2)ccc1Cl` [Compound 7931205], at cathepsin L [1], the “Inhibition of cleavage of Nipah peptide by Cathepsin-L” value stood at 66.6% and the “percentage inhibition against Nipah peptide” value is 74.4%. In addition, at cathepsin L [2], the “Inhibition of cleavage of SARS peptide by Cathepsin-L” value came to 36.8% and the “percentage inhibition against SARS peptide” value was determined as 38.1%. On cathepsin L [3], the “Inhibition of cleavage of Ebola peptide by Cathepsin-L” value is −0.7% and the “percentage inhibition against Ebola peptide” value amounted to 20%. At cathepsin L [4], the “Inhibition of cleavage of Hendra peptide by Cathepsin-L” value amounted to 34.8% and the “percentage inhibition against Hendra peptide” value is reported as 38.6%. For the same compound, at cathepsin L [5], the “Inhibition of cleavage of NPY peptide by Cathepsin-L” value is 19.5% and the “percentage inhibition against human Pro-NPY peptide” value is 24.9%.

As for `Cl.c1ccc(CNC2CCCc3c2[nH]c2ccc(-c4ccccc4)cc32)cc1` (stereo not drawn) [Compound 5219666], on cathepsin L [1], the “Inhibition of cleavage of Nipah peptide by Cathepsin-L” value was 90.6% and the “percentage inhibition against Nipah peptide” value was 87.5%. Moreover, on cathepsin L [2], the “Inhibition of cleavage of SARS peptide by Cathepsin-L” value was 94.6% and the “percentage inhibition against SARS peptide” value is recorded as 96.8%. For the same compound, at cathepsin L [3], the “Inhibition of cleavage of Ebola peptide by Cathepsin-L” value amounted to 43% and the “percentage inhibition against Ebola peptide” value is 75.7%. On cathepsin L [4], the “Inhibition of cleavage of Hendra peptide by Cathepsin-L” value was 54.6% and the “percentage inhibition against Hendra peptide” value came to 65.2%. Also, on cathepsin L [5], the “Inhibition of cleavage of NPY peptide by Cathepsin-L” value is 30% and the “percentage inhibition against human Pro-NPY peptide” value is listed as 44.4%.

Consider `Nc1ccc2[nH]c3ccccc3c2c1` [Compound 5172420], for which, on cathepsin L [1], the “Inhibition of cleavage of Nipah peptide by Cathepsin-L” value stood at 55.68%. Further, the “Inhibition of cleavage of SARS peptide by Cathepsin-L” value on cathepsin L [2] is listed as 42.29%. Moreover, the “Inhibition of cleavage of Ebola peptide by Cathepsin-L” value at cathepsin L [3] amounted to 6.1%. Moreover, the “Inhibition of cleavage of Hendra peptide by Cathepsin-L” value at cathepsin L [4] is 8.20%. At cathepsin L [5], the “Inhibition of cleavage of NPY peptide by Cathepsin-L” value was determined as 4.1%.

For the compound `Cc1c(C#N)c2ccccc2n1CC(=O)NCc1ccc2c(c1)OCO2` [Compound 6874634], on cathepsin L [1], the “Inhibition of cleavage of Nipah peptide by Cathepsin-L” value was 46% and the “percentage inhibition against Nipah peptide” value amounted to 54.1%. In addition, on cathepsin L [2], the “Inhibition of cleavage of SARS peptide by Cathepsin-L” value amounted to 65.6% and the “percentage inhibition against SARS peptide” value was found to be 67.7%. For the same compound, at cathepsin L [3], the “Inhibition of cleavage of Ebola peptide by Cathepsin-L” value turned out to be 4.6% and the “percentage inhibition against Ebola peptide” value amounted to 48%. For the same compound, at cathepsin L [4], the “Inhibition of cleavage of Hendra peptide by Cathepsin-L” value was 21.2% and the “percentage inhibition against Hendra peptide” value came out at 22.7%. At cathepsin L [5], the “Inhibition of cleavage of NPY peptide by Cathepsin-L” value stood at 12.8% and the “percentage inhibition against human Pro-NPY peptide” value stood at 13.4%.

For the compound `COc1ccc(OC)c(NC(=O)Nc2ccc(C(F)(F)F)cc2)c1` [Compound 7808526], the “Inhibition of cleavage of Nipah peptide by Cathepsin-L” value on cathepsin L [1] is reported as 40.8%. For the same compound, the “Inhibition of cleavage of SARS peptide by Cathepsin-L” value at cathepsin L [2] came to 69.2%. For the same compound, at cathepsin L [3], the “Inhibition of cleavage of Ebola peptide by Cathepsin-L” value stood at 9.6%. Also, the “Inhibition of cleavage of Hendra peptide by Cathepsin-L” value at cathepsin L [4] is −4.08%. Also, the “Inhibition of cleavage of NPY peptide by Cathepsin-L” value at cathepsin L [5] is given as 1.2%.

Take `O=C(Nc1ccc2c(c1)OCO2)c1cc(-c2cccnc2)nc2ccc(Cl)cc12` [Compound 7924029]: at cathepsin L [1], the “Inhibition of cleavage of Nipah peptide by Cathepsin-L” value came out at 50.4% and the “percentage inhibition against Nipah peptide” value was determined as 77.9%. Moreover, on cathepsin L [2], the “Inhibition of cleavage of SARS peptide by Cathepsin-L” value was 60% and the “percentage inhibition against SARS peptide” value was 71.2%. For the same compound, at cathepsin L [3], the “Inhibition of cleavage of Ebola peptide by Cathepsin-L” value turned out to be 22% and the “percentage inhibition against Ebola peptide” value amounted to 55%. Further, at cathepsin L [4], the “Inhibition of cleavage of Hendra peptide by Cathepsin-L” value came to 26.3% and the “percentage inhibition against Hendra peptide” value worked out at 45.6%. Besides, on cathepsin L [5], the “Inhibition of cleavage of NPY peptide by Cathepsin-L” value came to 11% and the “percentage inhibition against human Pro-NPY peptide” value stood at 18.6%.

Take `Cc1cc(C(=O)Nc2cccnc2)sc1-c1ccccc1` [Compound 7948346]: on cathepsin L [1], the “Inhibition of cleavage of Nipah peptide by Cathepsin-L” value is given as 49.3%. At cathepsin L [2], the “Inhibition of cleavage of SARS peptide by Cathepsin-L” value stood at 72.4%. Also, the “Inhibition of cleavage of Ebola peptide by Cathepsin-L” value on cathepsin L [3] was 25.2%. For the same compound, the “Inhibition of cleavage of Hendra peptide by Cathepsin-L” value at cathepsin L [4] came to 17.7%. For the same compound, the “Inhibition of cleavage of NPY peptide by Cathepsin-L” value on cathepsin L [5] was found to be 10.2%.

As to `O=C(Nc1ccc(F)c(Cl)c1)Nc1nnc(C(F)(F)F)s1` [Compound 7940158], on cathepsin L [1], the “Inhibition of cleavage of Nipah peptide by Cathepsin-L” value is listed as 34% and the “percentage inhibition against Nipah peptide” value was 54.7%. At cathepsin L [2], the “Inhibition of cleavage of SARS peptide by Cathepsin-L” value is given as 55.8% and the “percentage inhibition against SARS peptide” value was determined as 64.6%. Moreover, at cathepsin L [3], the “Inhibition of cleavage of Ebola peptide by Cathepsin-L” value is −12.3% and the “percentage inhibition against Ebola peptide” value is 49.1%. In addition, on cathepsin L [4], the “Inhibition of cleavage of Hendra peptide by Cathepsin-L” value is 26.2% and the “percentage inhibition against Hendra peptide” value is given as 19%. In addition, at cathepsin L [5], the “Inhibition of cleavage of NPY peptide by Cathepsin-L” value turned out to be 4% and the “percentage inhibition against human Pro-NPY peptide” value is given as 14.9%.

In the case of `CN(C)c1ccc(C(O)(c2ccc(N(C)C)cc2)c2ccc(N(C)C)cc2)cc1` [Compound 5152606], the “Inhibition of cleavage of Nipah peptide by Cathepsin-L” value on cathepsin L [1] is listed as 121.65%. The “Inhibition of cleavage of SARS peptide by Cathepsin-L” value at cathepsin L [2] stood at 82.15%. Also, the “Inhibition of cleavage of Ebola peptide by Cathepsin-L” value on cathepsin L [3] is 31.8%. Further, the “Inhibition of cleavage of Hendra peptide by Cathepsin-L” value at cathepsin L [4] is reported as 108.40%. Also, on cathepsin L [5], the “Inhibition of cleavage of NPY peptide by Cathepsin-L” value was found to be 70.2%.

On to `O=C(Nc1ccc(S(=O)(=O)N2CCOCC2)cc1)Nc1ccc(F)c(Cl)c1` [Compound 7798500], for which, at cathepsin L [1], the “Inhibition of cleavage of Nipah peptide by Cathepsin-L” value was determined as 41.5% and the “percentage inhibition against Nipah peptide” value came to 49.2%. In addition, on cathepsin L [2], the “Inhibition of cleavage of SARS peptide by Cathepsin-L” value was found to be 69.6% and the “percentage inhibition against SARS peptide” value was found to be 62.2%. At cathepsin L [3], the “Inhibition of cleavage of Ebola peptide by Cathepsin-L” value is recorded as −6.3% and the “percentage inhibition against Ebola peptide” value was determined as 64.8%. Besides, at cathepsin L [4], the “Inhibition of cleavage of Hendra peptide by Cathepsin-L” value is 26.3% and the “percentage inhibition against Hendra peptide” value is recorded as 30.4%. Moreover, at cathepsin L [5], the “Inhibition of cleavage of NPY peptide by Cathepsin-L” value was 11.2% and the “percentage inhibition against human Pro-NPY peptide” value worked out at 24.6%.
